The source of these data is patent publication US20250090875A9, “IMMUNOSTIMULATORY COMPOUNDS AND CONJUGATES” (Seagen Inc., priority 2021, published 2025).

Molecules are shown by their SMILES. “Also recorded” adds a separate entry of the source.

The subject of one assay is CT26 tumors. The format is in vivo. The note with it: targeted ADC, intraperitoneal, every 7 days, 3 doses; for mice surviving at the end of the study: 6 mice per group. From the text:
This example covers in vivo assessments of anti-tumor activity of ADCs with TLR7/8 agonists. An in vivo syngeneic system was used to assess the ability of the ADCs having TLR ⅞ agonists as the payload to induce immune responses and drive an anti-tumor immune response using a subcutaneous, heterotopic mouse colon carcinoma model (a CT26 system). Female Balb/c mice were implanted with 1×10^5 CT26 cells sub-cutaneously in the flank on day 0. When mean tumor size of 100 mm^3 (measured using the formula: Volume (mm^3)=0.5*Length*Width^2 where length is the longer dimension) was reached, the mice were randomized into treatment groups of 6 mice per group. Animals were then treated intraperitoneally with the indicated treatment every 7 days, for 3 doses total. Stock concentrations of the ADCs were diluted to the appropriate concentration and injected into animals in 100 μL volumes. Tumor length and width and mouse weights were measured throughout the study and tumor volume was calculated using the formula above. Animals were followed until tumor volume reached 1000 mm^3, when animals were then euthanized.

The next assay relates to primary human PBMCs. Kind of assay: Cytokine induction in primary human PBMCs by small molecule TLR7/8 agonists (Luminex). The format is cell-based. Particulars: for potency and activity of cytokine induction (IL6, TNFα, MCP1, IP10): ranking; for potency to activate human PBMCs (IL6, IL1b, MIP1b, TNFα): compared with S18a, FIG. 29. As to the method:
This example covers dose dependent human immune cell activation by small molecule TLR7/8 agonists. Primary human PBMCs were isolated from peripheral whole blood from human donors and were subjected to treatment with increasing concentrations of the agonists diluted in PBS. Cell culture supernatants were harvested 24 h after treatment and analyzed for induction of cytokines via multiplex ELISAs (Luminex).
Several small molecule TLR7/8 agonists were assessed for their ability to activate human immune cells in a dose dependent manner. Primary human PBMCs were isolated from peripheral whole blood from human donors and were subjected to treatment with increasing concentrations of the agonists diluted in PBS. 24 h after treatment cell culture supernatants were harvested and analyzed for induction of cytokines via multiplex ELISAs (Luminex).

The next assay relates to Renca tumors. Kind of assay: Renca kidney carcinoma model in Balb/c mice. The format is in vivo, mouse. Particulars: targeted or non-targeted conjugates, N1 vs C4 linkage, different linkers, with or without PEG. As to the method:
The difference in anti-tumor activity of the S18a and S18b conjugates was also assessed in the Renca kidney model. In this model, mice bearing Renca tumors were treated q7dx3 when tumors reached ˜100 mm^3 as indicated, and followed for mean group tumor growth (FIG. 14, top) and survival (FIG. 14, bottom) over time.
This example covers cancer treatment with EphA2 targeted TLR agonists. […] Balb/c mice were implanted with Renca tumor cells and when cells reached 100 mm^3 they were treated Q7dx3 treatments with 2.4 mg/kg of the indicated IDC, either non targeting isotype or an EphA2 targeting mAb.

Turning to `CCCCc1nc2c(N)nc3cc(C(=O)OC)ccc3c2n1CCCCCNC(=O)OCc1ccc(O[C@H]2O[C@H](CO)[C@@H](O)[C@H](O)[C@@H]2O)c(NC(=O)CCNC(=O)[C@H](CCCCNC(=O)CCOCCOCCOCCOCCOCCOCCOCCOCCOCCOCCOCCOC)NC(=O)CCN2C(=O)C=CC2=O)c1` [Compound 7, Methyl 4-amino-2-butyl-1-(5-((((3-((S)-44-(3-(2,5-dioxo-2,5-dihydro-1H-pyrrol-1-yl)propanamido)-38,45-dioxo-2,5,8,11,14,17,20,23,26,29,32,35-dodecaoxa-39,46-diazanonatetracontan-49-amido)-4-(((2R,3 S,4 S, 5 S,6R)-3,4,5-trihydroxy-6-(hydroxymethyl)tetrahydro-2H-pyran-2-yl)oxy)benzyl)oxy)carbonyl)amino)pentyl)-1H-imidazo[4,5-c]quinoline-7-carboxylate], in the assay on CT26 tumors, the “tumor growth delay and survival” value is “some tumor growth delay over the untreated group”; the “mice surviving at the end of the study” value is reported as “no animals ultimately survived”.
Take `CCCCc1nc2c(N)nc3cc(C(=O)OC)ccc3c2n1Cc1ccc(CN2CCCC2)cc1` [S65a]: in the assay on primary human PBMCs (free drug, FIG. 30), the “potency to induce MCP1 and IP10” value is “enhanced potency to induce MCP1 and IP10 compared to compounds S18a”; the “potency and activity of cytokine induction (IL6, TNFα, MCP1, IP10)” value (“potency and activity” for short) is on record as “other two most potent compounds”.
Regarding `CCCCc1nc2c(N)nc3cc(C(=O)OC)ccc3c2n1Cc1ccc(CN)cc1` [S8a], the “concentration eliciting cytokine responses (IFNg, IL1β, MIP1β, TNFα)” value in the assay with primary human PBMCs (single donor, 24 h, FIG. 1) was less than 0.1 µM.
For `CCCCc1nc2c(N)nc3cc(C(=O)OC)ccc3c2n1Cc1ccc(CN2CCCCC2)cc1` [S85a], the “potency to activate human PBMCs (IL6, IL1b, MIP1b, TNFα)” value with primary human PBMCs (free drug) is reported as “slightly decreased potency”.
Consider `CCCCc1nc2c(N)nc3cc(C(=O)O)ccc3c2n1Cc1ccc(C[N+](C)(C)Cc2ccc(O[C@H]3O[C@H](CO)[C@@H](O)[C@H](O)[C@@H]3O)c(NC(=O)CCNC(=O)CCN3C(=O)C=CC3=O)c2)cc1` [Compound 14, N-(4-((4-amino-2-butyl-7-carboxy-1H-imidazo[4,5-c]quinolin-1-yl)methyl)benzyl)-1-(3-(3-(3-(2,5-dioxo-2,5-dihydro-1H-pyrrol-1-yl)propanamido)propanamido)-4-(((2R,3S,4S,5S,6R)-3,4,5-trihydroxy-6-(hydroxymethyl)tetrahydro-2H-pyran-2-yl)oxy)phenyl)-N,N-dimethylmethanaminium], for which the “anti-tumor activity (tumor volume, survival)” value with Renca tumors is on record as “greatest potency”.
In the case of `CCCCc1nc2c(N)nc3cc(C(=O)OC)ccc3c2n1Cc1ccc(CNC(=O)OCc2ccc(O[C@H]3O[C@H](CO)[C@@H](O)[C@H](O)[C@@H]3O)c(NC(=O)CCNC(=O)[C@H](CCCCNC(=O)CCOCCOCCOCCOCCOCCOCCOCCOCCOCCOCCOCCOC)NC(=O)CCN3C(=O)C=CC3=O)c2)cc1` [Compound 4, methyl 4-amino-2-butyl-1-(4-(((((3-((S)-44-(3-(2,5-dioxo-2,5-dihydro-1H-pyrrol-1-yl)propanamido)-38,45-dioxo-2,5,8,11,14,17,20,23,26,29,32,35-dodecaoxa-39,46-diazanonatetracontan-49-amido)-4-(((2R,3 S,4 S, 5 S,6R)-3,4,5-trihydroxy-6-(hydroxymethyl)tetrahydro-2H-pyran-2-yl)oxy)benzyl)oxy)carbonyl)amino)methyl)benzyl)-1H-imidazo[4,5-c]quinoline-7-carboxylate], in the assay with CT26 tumors, the “tumor growth delay and survival” value was “some tumor growth delay and survival benefit”; the “mice surviving at the end of the study” value is listed as “⅙”.
`CCCCc1nc2c(N)nc3cc(C(=O)O)ccc3c2n1CCCCCNC(=O)OCc1ccc(O[C@H]2O[C@H](CO)[C@@H](O)[C@H](O)[C@@H]2O)c(NC(=O)CCNC(=O)[C@H](CCCCNC(=O)CCOCCOCCOCCOCCOCCOCCOCCOCCOCCOCCOCCOC)NC(=O)CCN2C(=O)C=CC2=O)c1` [Compound 8, 4-amino-2-butyl-1-(5-((((3-((S)-44-(3-(2,5-dioxo-2,5-dihydro-1H-pyrrol-1-yl)propanamido)-38,45-dioxo-2,5,8,11,14,17,20,23,26,29,32,35-dodecaoxa-39,46-diazanonatetracontan-49-amido)-4-(((2R,3 S,4 S, 5 S,6R)-3,4,5-trihydroxy-6-(hydroxymethyl)tetrahydro-2H-pyran-2-yl)oxy)benzyl)oxy)carbonyl)amino)pentyl)-1H-imidazo[4,5-c]quinoline-7-carboxylic acid]: in the assay on CT26 tumors, the “tumor growth delay and survival” value is “greatly increased tumor growth delay and survival”.
On to `CCCCc1nc2c(N)nc3cc(C(=O)OC)ccc3c2n1Cc1ccc(CN2CCOCC2)cc1` [S81a], for which, in the assay on primary human PBMCs (free drug, FIG. 30), the “maximal level of IL6, MCP1 and IP10” value is “same maximal level of IL6, MCP1 and IP10 as the other compounds”; the “maximum level of IL10, IL1b or TNFα” value is listed as “not able to reach the same maximum level”; the “potency and activity” value was “greater activity than compound S82a”. The “TLR7 vs TLR8 binding profile” value with primary human PBMCs (inferred from the cytokine profile) is “TLR7 vs TLR8 skewed binding profile”.
Turning to `CCCCc1nc2c(N)nc3cc(C(=O)O)ccc3c2n1Cc1ccc(C[N+](C)(C)Cc2ccc(O[C@H]3O[C@H](CO)[C@@H](O)[C@H](O)[C@@H]3O)c(NC(=O)CCNC(=O)[C@H](CCCCNC(=O)CCOCCOCCOCCOCCOCCOCCOCCOCCOCCOCCOCCOC)NC(=O)CCN3C(=O)C=CC3=O)c2)cc1` [Compound 9, N-(4-((4-amino-2-butyl-7-carboxy-1H-imidazo[4,5-c]quinolin-1-yl)methyl)benzyl)-1-(3-((S)-44-(3-(2,5-dioxo-2,5-dihydro-1H-pyrrol-1-yl)propanamido)-38,45-dioxo-2,5,8,11,14,17,20,23,26,29,32,35-dodecaoxa-39,46-diazanonatetracontan-49-amido)-4-(((2R,3 S,4 S, 5 S,6R)-3,4,5-trihydroxy-6-(hydroxymethyl)tetrahydro-2H-pyran-2-yl)oxy)phenyl)-N,N-dimethylmethanaminium], the “anti-tumor activity (tumor volume, survival)” value in the assay on Renca tumors is “greatest potency; also recorded: superior potency”. Besides, the “tumor growth delay and survival” value with CT26 tumors was “potent tumor growth delay and a long-term overall survival benefit”.
With `CCCCc1nc2c(N)nc3cc(C(=O)O)ccc3c2n1CC(C)O` (centres unmarked) [S5b], the “IFNα, IL1β, MIP1β, TNFα induction, C7 carboxylic acid vs parent C7 methyl ester” value in the assay on primary human PBMCs (free drug, FIG. 3) was “markedly lower potency and activity than its corresponding parent methyl ester compound”.
Regarding `CCCCc1nc2c(N)nc3cc(C(=O)O)ccc3c2[nH]1` [S82b], the “potency and activity” value with primary human PBMCs (free drug, FIG. 30) was “greater activity than compound S84a”.
Turning to `CCCCc1nc2c(N)nc3cc(C(=O)OC)ccc3c2n1Cc1ccc(CN(CC)CC)cc1` [S83a], the “potency to activate human PBMCs (IL6, IL1b, MIP1b, TNFα)” value with primary human PBMCs (free drug) is given as “slightly enhanced potency”. Besides, the “potency and activity” value in the assay on primary human PBMCs (free drug, FIG. 30) is “highest maximal cytokine and potency to induce cytokine of all compounds tested”.
